Source: US11524077B2, “Orally active, cell-penetrating homing peptide and methods using same” (Vascular BioSciences, priority 2012, dated 2022)
Bridge positions count the residues as written; N and C are the ends. Ends that are not written are not given here. Peptide text beside a SMILES is read from it.

Key:
trypsin = trypsin digest time-course experiment with mass spectrometry analysis; assay type: in vitro ADME; conditions: trypsin in Krebbs buffer, 24° C., 0-120 minutes
Excerpt: In an effort to further understand the oral availability of cyclic CAR peptide, we tested the stability of cyclic CAR (cCAR) and linear CAR in the presence of trypsin, a serine protease that is one of the primary enzymes found in the digestive system of vertebrates. Trypsin selectively cleaves peptide chains at the carboxyl side of the basic residues lysine and arginine, yielding a potentially wide variety of peptide fragments.
We conducted a trypsin proteolysis time course experiment, and tested cCAR and linear CAR (cyclic CAR that lacks the disulfide bond between adjacent cysteine residues and has a linear structure) in the presence of a trypsin solution.
For the digest time course experiment, the cCAR peptide sample was prepared by dissolving cCAR in Krebbs buffer (670 μM CAR), and the trypsin digest solution was prepared by adding trypsin to Krebbs buffer as well (0.1 μg/μL Trypsin). 15 μL CAR (670 μM) was added to 40 μL trypsin solution (0.1 μg/μL) and 75 μL Krebbs buffer. The reaction was allowed to proceed at 24° C. for different time periods of time. The reactions were quenched with 20 μL formic acid (500 μM) at different time points to stop trypsin from degrading any further peptide substrate. These steps were performed repeatedly for multiple time points (t=0, 5, 10, 15, 20, 30, 60, 120 minutes) for both cCAR and linear CAR. The different time point samples were desalted and analyzed using mass spectrometry.

[1] = co-administered with the Rho-kinase inhibitor fasudil; cited from earlier work
[2] = test system: severe occlusive PAH rats (SU5416/Hx/Nx-exposed); experiment: hemodynamic effect of oral CAR 3 hours prior to i.v. imatinib in severe occlusive rat model of PAH; assay type: in vivo
Procedure: Anesthetized severe occlusive PAH rats were then catheterized in the right jugular vein for measurement of right ventricular systolic pressure (RVSP), the right carotid artery and advanced into the aorta for the measurement of systemic pressure (SAP) and the left jugular vein for drug administration.
Values are means±SE. N=3 without CAR and N=5 with CAR *p<0.05 vs. without CAR.
Recently we sought to explore the hemodynamic effect of orally administering 20 mg/kg of CAR 3 hours prior to i.v. administration of imatinib at doses of 5 mg/kg and 20 mg/kg in a severe occlusive rat model of PAH. Rats were first orally syringe fed a mixture of 20 mg/Kg CAR in a 10% sucrose solution 3 hours prior to anesthetization and assessment of the hemodynamic effects of i.v. administration of 5 mg/kg imatinib followed 20 minutes later by i.v. administration of 20 mg/kg of imatinib (FIG. 1).

[3] = test system: SU/Hx/Nx rats with severe occlusive model PAH; experiment: sublingual CAR +/- imatinib or sildenafil in rats with severe occlusive model PAH; assay type: in vivo, rat; conditions: CAR 3 mg/kg sublingual; i.v. bolus imatinib or sildenafil; RVSP and SAP
Procedure: (A) a pulmonary artery with medial thickening, (B) a small pulmonary artery with neointimal occlusion, (C) spleen, (D) liver, and (E) kidney from a SU/Hx/Nx rat. […] Effects of CAR (3 mg/kg, sublingual) on intravenous (bolus) imatinib (F)- and sildenafil (G)- induced reductions in right ventricular systolic pressure (RVSP) and systemic arterial pressure (SAP) in SU/Hx/Nx rats. Values are means±SE. N=4-6. *p<0.05 with (solid line) vs. without (dashed line) CAR.
CAR was administered sublingually at a dosing of 3 mg/kg. The administration was performed in six rats with severe occlusive model PAH via dropper sublingually. The administration was +/− imatinib or +/− sildenafil.

[4] = test system: pulmonary hypertensive arteries; conditions: monocrotaline (MCT) and SU5416/Hypoxia/Normoxia severe occlusive rat models of PAH; cited from earlier work
[5] = imatinib i.v. 20 mg/kg, 3 hours after oral CAR 20 mg/kg, severe occlusive PAH rats

C[C@H](NC(=O)[C@@H]1CSSC[C@H](NC(=O)[C@H](CC(=O)O)NC(=O)[C@H](CCCCN)NC(=O)[C@H](CC(N)=O)NC(=O)[C@H](CCCCN)NC(=O)[C@@H](N)CO)C(=O)N1)C(=O)N[C@@H](CCCNC(=N)N)C(=O)O [SEQ ID NO: 5, SKNKDCCAR] (H-SKNKDCCAR-OH; disulfide 6-7; N-terminus and C-terminus assumed)
outcome of trypsin digest (stability in words) (trypsin): largely resistant to further degradation by trypsin | resistance to trypsin digestion relative to cCAR (trypsin): approximately 10 fold | resistance to trypsin digestion relative to linear CAR (trypsin): approximately 100 fold

C[C@H](NC(=O)[C@@H](N)CS)C(=O)N[C@@H](CCCNC(=N)N)C(=O)N[C@@H](CO)C(=O)N[C@@H](CCCCN)C(=O)N[C@@H](CC(N)=O)C(=O)N[C@@H](CCCCN)C(=O)N[C@@H](CC(=O)O)C(=O)N[C@@H](CS)C(=O)O [linear CAR] (H-CARSKNKDC-OH; N-terminus and C-terminus assumed)
outcome of trypsin digest (stability in words) (trypsin): quickly digested by trypsin into its constituent amino acids

CARSKNKDC (disulfide 1-9 (inferred)) [cell-penetrating homing peptide]
vasodilation when co-administered with fasudil [1]: acute pulmonary selective vasodilation | adjuvant activity after oral administration ([2]; 3 hours after oral CAR 20 mg/kg in 10% sucrose, i.v. imatinib): displayed pulmonary selective adjuvant activity | change in systemic arterial pressure (SAP) [2, 5]: no change | reduction in right ventricular systolic pressure (RVSP) [2, 5]: 18% | effect on action of co-administered drugs [3]: can facilitate the selective action of co-administered drugs at the site of the disease | homing to pulmonary hypertensive arteries [4]: shown to home to pulmonary hypertensive arteries | outcome of trypsin digest (stability in words) (trypsin): yielded one predominant product that persisted over the time course of the experiment
